Measurements from ChEMBL document CHEMBL4680174, “Synthesis, biological evaluation and in silico modeling of novel integrase strand transfer inhibitors (INSTIs)” (Eur J Med Chem, 2020).
pEC50, pIC50: −log10 of the molar value. In brackets after ≈: the same amount, converted by molar mass. One block for each compound: values may come before it.

What was measured:
[1] = test system: Human immunodeficiency virus 1; assay: Antiviral activity against HIV1 3B infected in human CEM-SS cells assessed as reduction in cytopathic effect after 4 days; assay type: functional, organism-based
[2] = Thermodynamic solubility of compound in plON buffer at 2 mg after 24 hrs; assay type: physicochemical; conditions: read-out: Therm_solubility
[3] = Thermodynamic solubility of compound in water at 2 mg after 24 hrs; assay type: physicochemical; conditions: read-out: Therm_solubility
[4] = Selectivity index, ratio of CC50 for human CEM-SS cells to EC50 for Antiviral activity against HIV1 3B infected in human CEM-SS cells; assay type: toxicity, cell-based; conditions: for selectivity ratio: CEM-SS cells, read-out: Ratio CC50/EC50
[5] = Cytotoxicity against human CEM-SS cells assessed as reduction in cell viability by XTT assay; assay type: cell-based
[6] = Drug concentration in Sprague-Dawley rat at 1 mg/kg, iv after 24 hrs by LC-MS/MS analysis; assay type: ADME, organism-based; conditions: in vivo, read-out: Drug uptake
[7] = Stability in rat liver microsomes assessed as parent compound remaining at 1 uM up to 24 hrs by LC-MS/MS analysis; assay type: ADME, Microsome; conditions: read-out: Stabilty
[8] = Elimination rate constant Sprague-Dawley rat at 1 mg/kg, iv up to 24 hrs by LC-MS/MS analysis; assay type: ADME, organism-based; conditions: in vivo
[9] = Drug concentration in Sprague-Dawley rat at 5 mg/kg, po after 8 hrs by LC-MS/MS analysis; assay type: ADME, organism-based; conditions: in vivo, read-out: Drug uptake
[10] = Protein binding in rat plasma at 1 uM after 4 hrs by LC-MS/MS analysis; assay type: ADME, cell-free; conditions: read-out: PPB (converted)
Cytochrome P450 2C19 = Cytochrome P450 2C19 (Homo sapiens, UniProt P33261); assay: Inhibition of CYP2C19 in human liver microsomes using S-mephenytoin as substrate incubated for 30 mins by LC-MS/MS analysis; assay type: ADME
[11] = Stability in human liver microsomes assessed as parent compound remaining at 1 uM up to 24 hrs by LC-MS/MS analysis; assay type: ADME, Microsome; conditions: read-out: Stabilty
Cytochrome P450 2D6 = Cytochrome P450 2D6 (Homo sapiens, UniProt P10635); assay: Inhibition of CYP2D6 in human liver microsomes using dextromethorphan as substrate incubated for 30 mins by LC-MS/MS analysis; assay type: ADME
[12] = Drug concentration in Sprague-Dawley rat at 1 mg/kg, iv after 8 hrs by LC-MS/MS analysis; assay type: ADME, organism-based; conditions: in vivo, read-out: Drug uptake
Cytochrome P450 1A2 = biological target: T1, Cytochrome P450 1A2 (Homo sapiens, UniProt P05177); assay: Inhibition of CYP1A2 in human liver microsomes using phenacetin as substrate incubated for 30 mins by LC-MS/MS analysis; assay type: ADME
T1 sequence (P05177 whole entry): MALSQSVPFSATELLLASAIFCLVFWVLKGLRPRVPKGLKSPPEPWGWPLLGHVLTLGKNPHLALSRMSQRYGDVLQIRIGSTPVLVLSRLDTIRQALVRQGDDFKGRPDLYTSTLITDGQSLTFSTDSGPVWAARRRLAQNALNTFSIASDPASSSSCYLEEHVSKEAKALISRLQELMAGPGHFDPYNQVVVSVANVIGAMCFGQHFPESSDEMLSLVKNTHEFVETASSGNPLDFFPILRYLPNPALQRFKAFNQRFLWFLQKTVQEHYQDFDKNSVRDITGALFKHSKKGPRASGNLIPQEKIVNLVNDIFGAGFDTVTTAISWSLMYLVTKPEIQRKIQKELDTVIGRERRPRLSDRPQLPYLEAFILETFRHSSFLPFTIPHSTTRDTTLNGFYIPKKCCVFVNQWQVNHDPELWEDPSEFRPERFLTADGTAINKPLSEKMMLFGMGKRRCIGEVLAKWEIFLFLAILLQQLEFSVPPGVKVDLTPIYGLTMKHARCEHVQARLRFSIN

[13] = Stability in human plasma assessed as parent compound remaining at 1 uM up to 24 hrs by LC-MS/MS analysis; assay type: ADME, cell-free; conditions: read-out: Stabilty
[14] = Stability in rat plasma assessed as parent compound remaining at 1 uM up to 24 hrs by LC-MS/MS analysis; assay type: ADME, cell-free; conditions: read-out: Stabilty
[15] = Drug concentration in Sprague-Dawley rat at 5 mg/kg, po after 24 hrs by LC-MS/MS analysis; assay type: ADME, organism-based; conditions: in vivo, read-out: Drug uptake
Cytochrome P450 2C8 = biological target: T2, Cytochrome P450 2C8 (Homo sapiens, UniProt P10632); assay: Inhibition of CYP2C8 in human liver microsomes using amodiaquine as substrate incubated for 30 mins by LC-MS/MS analysis; assay type: ADME
T2 sequence (P10632 whole entry): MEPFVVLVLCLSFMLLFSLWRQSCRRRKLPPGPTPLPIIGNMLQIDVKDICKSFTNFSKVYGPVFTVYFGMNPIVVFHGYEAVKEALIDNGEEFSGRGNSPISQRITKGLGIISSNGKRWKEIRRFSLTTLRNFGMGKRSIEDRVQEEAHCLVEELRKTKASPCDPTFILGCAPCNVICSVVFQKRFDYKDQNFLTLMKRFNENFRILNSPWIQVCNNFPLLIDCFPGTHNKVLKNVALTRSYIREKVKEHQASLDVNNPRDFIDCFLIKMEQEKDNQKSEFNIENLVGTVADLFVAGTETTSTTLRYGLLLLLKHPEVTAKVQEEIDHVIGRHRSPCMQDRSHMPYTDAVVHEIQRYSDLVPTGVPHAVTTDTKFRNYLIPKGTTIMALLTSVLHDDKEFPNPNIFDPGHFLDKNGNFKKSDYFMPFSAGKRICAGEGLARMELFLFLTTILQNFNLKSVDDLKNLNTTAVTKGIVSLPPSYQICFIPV

Cytochrome P450 2C9 = Cytochrome P450 2C9 (Homo sapiens, UniProt P11712); assay: Inhibition of CYP2C9 in human liver microsomes using tolbutamide as substrate incubated for 30 mins by LC-MS/MS analysis; assay type: ADME
[16] = Tmax in Sprague-Dawley rat at 1 mg/kg, iv up to 24 hrs by LC-MS/MS analysis; assay type: ADME, organism-based; conditions: in vivo
[17] = Elimination rate constant Sprague-Dawley rat at 5 mg/kg, po up to 24 hrs by LC-MS/MS analysis; assay type: ADME, organism-based; conditions: in vivo
[18] = Protein binding in human plasma at 1 uM after 4 hrs by LC-MS/MS analysis; assay type: ADME, cell-free; conditions: read-out: PPB
[19] = Oral bioavailability in Sprague-Dawley rat at 5 mg/kg up to 24 hrs by LC-MS/MS analysis; assay type: ADME, organism-based; conditions: in vivo
[20] = Tmax in Sprague-Dawley rat at 5 mg/kg, po up to 24 hrs by LC-MS/MS analysis; assay type: ADME, organism-based; conditions: in vivo
Cytochrome P450 3A4 = Cytochrome P450 3A4 (Homo sapiens, UniProt P08684); assay: Inhibition of CYP3A4 in human liver microsomes using midazolam as substrate incubated for 30 mins by LC-MS/MS analysis; assay type: ADME
[21] = Human immunodeficiency virus 1, 3B, CEM-SS, 96 h

Sequence of Cytochrome P450 3A4 (P08684 whole entry): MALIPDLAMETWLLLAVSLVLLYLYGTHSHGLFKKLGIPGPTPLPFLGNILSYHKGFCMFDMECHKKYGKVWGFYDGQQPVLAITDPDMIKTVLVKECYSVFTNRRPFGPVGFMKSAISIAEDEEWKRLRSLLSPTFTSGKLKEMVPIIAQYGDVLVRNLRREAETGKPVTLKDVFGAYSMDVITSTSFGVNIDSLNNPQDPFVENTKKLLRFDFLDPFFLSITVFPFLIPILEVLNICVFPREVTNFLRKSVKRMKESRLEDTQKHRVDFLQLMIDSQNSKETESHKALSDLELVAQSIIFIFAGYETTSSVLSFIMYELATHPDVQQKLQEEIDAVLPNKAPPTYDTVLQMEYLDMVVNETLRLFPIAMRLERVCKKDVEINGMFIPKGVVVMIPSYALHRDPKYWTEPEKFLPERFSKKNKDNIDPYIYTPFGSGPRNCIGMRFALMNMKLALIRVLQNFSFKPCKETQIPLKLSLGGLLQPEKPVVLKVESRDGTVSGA
Sequence of Cytochrome P450 2C19 (P33261 whole entry): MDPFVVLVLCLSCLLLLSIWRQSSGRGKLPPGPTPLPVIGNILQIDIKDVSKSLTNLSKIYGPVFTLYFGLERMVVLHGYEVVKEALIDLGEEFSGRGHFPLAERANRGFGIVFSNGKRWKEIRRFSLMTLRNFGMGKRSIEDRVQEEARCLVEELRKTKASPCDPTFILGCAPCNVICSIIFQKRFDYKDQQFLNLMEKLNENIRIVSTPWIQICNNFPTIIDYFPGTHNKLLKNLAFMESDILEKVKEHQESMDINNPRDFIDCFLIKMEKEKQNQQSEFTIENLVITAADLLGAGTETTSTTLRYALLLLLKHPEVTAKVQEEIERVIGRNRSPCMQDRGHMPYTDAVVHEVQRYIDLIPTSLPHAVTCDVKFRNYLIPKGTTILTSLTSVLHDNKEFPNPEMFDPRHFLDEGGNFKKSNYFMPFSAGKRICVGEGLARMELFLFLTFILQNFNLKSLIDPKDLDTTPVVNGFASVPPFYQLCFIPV
Sequence of Cytochrome P450 2D6 (P10635 whole entry): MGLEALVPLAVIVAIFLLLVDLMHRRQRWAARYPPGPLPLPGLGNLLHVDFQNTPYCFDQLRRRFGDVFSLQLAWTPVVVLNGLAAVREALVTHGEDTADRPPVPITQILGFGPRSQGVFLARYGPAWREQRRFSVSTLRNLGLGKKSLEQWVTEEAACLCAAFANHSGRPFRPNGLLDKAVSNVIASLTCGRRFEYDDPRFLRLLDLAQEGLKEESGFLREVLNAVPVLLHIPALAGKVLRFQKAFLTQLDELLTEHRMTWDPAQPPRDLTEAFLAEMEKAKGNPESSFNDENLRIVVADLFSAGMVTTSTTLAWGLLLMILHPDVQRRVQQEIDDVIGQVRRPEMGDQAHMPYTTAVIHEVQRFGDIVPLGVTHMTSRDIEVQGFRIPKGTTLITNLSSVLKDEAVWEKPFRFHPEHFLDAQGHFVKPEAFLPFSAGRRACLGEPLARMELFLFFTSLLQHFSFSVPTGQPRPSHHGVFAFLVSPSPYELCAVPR
Sequence of Cytochrome P450 2C9 (P11712 whole entry): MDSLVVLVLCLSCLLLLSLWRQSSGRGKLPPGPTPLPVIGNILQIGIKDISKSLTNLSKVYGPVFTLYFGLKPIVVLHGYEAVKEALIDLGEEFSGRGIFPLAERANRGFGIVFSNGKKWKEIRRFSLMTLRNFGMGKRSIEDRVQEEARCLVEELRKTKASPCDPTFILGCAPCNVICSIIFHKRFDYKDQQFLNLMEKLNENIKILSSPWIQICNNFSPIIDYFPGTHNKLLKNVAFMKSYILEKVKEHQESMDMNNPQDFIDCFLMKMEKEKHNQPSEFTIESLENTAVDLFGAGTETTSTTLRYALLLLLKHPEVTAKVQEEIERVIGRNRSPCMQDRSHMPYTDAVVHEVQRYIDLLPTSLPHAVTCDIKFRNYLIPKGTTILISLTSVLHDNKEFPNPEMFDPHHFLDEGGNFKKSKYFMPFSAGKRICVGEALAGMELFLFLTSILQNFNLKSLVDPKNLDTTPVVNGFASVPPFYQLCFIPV

Structure (SMILES): C[C@H]1CO[C@@H]2Cn3cc(C(=O)NCc4nn(C)c(Cl)c4Cl)c(=O)c(O)c3C(=O)N12
pEC50 [1, 21]: 9.23
solubility thermodynamic at 24 h [2]: 318 µg/mL (≈ 719 µM)
solubility thermodynamic at 24 h [3]: 318 µg/mL (≈ 719 µM)
selectivity ratio [4]: > 16.9
CC50 [5]: > 10 nM

Structure (SMILES): C[C@@H]1CCO[C@H]2Cn3cc(C(=O)NCc4ccc(F)nc4F)c(=O)c(O)c3C(=O)N12
pEC50 [1, 21]: 8.29
solubility thermodynamic at 24 h [2]: 80 µg/mL (≈ 190 µM)
solubility thermodynamic at 24 h [3]: 57 µg/mL (≈ 136 µM)
selectivity ratio [4]: > 1.9
CC50 [5]: > 10 nM

Structure (SMILES): C[C@H]1CO[C@@H]2Cn3cc(C(=O)NCc4ncc(F)cc4F)c(=O)c(O)c3C(=O)N12
solubility thermodynamic at 24 h [2]: 196 µg/mL (≈ 482 µM)
solubility thermodynamic at 24 h [3]: 131 µg/mL (≈ 322 µM)

Structure (SMILES): C[C@H]1CO[C@@H]2Cn3cc(C(=O)NCc4c(F)cncc4F)c(=O)c(O)c3C(=O)N12
pEC50 [1, 21]: 8.58
solubility thermodynamic at 24 h [2]: 380 µg/mL (≈ 935 µM)
solubility thermodynamic at 24 h [3]: 347 µg/mL (≈ 854 µM)
selectivity ratio [4]: > 3.8
CC50 [5]: > 10 nM

The next lines start with results.

pEC50 ([1]; cem-ss): 9.62
concentration at 24 h [6]: 5430 ng/mL
remaining at 24 h, 1 µM [7]: 83.8%
k el at 24 h [8]: 8.33e-06 s⁻¹
concentration at 8 h [9]: 7910 ng/mL
fraction unbound at 4 h, 1 µM [10]: 0.011
pIC50 (Cytochrome P450 2C19): < 5.00
remaining at 24 h, 1 µM [11]: 84%
solubility thermodynamic at 24 h [2]: 232 µg/mL (≈ 571 µM)
solubility thermodynamic at 24 h [3]: 269 µg/mL (≈ 662 µM)
pIC50 (Cytochrome P450 2D6): < 5.00
concentration at 8 h [12]: 8620 ng/mL
pIC50 (Cytochrome P450 1A2): < 5.00
remaining at 24 h, 1 µM [13]: 95%
remaining at 24 h, 1 µM [14]: 94.5%
concentration at 24 h [15]: 4440 ng/mL
pIC50 (Cytochrome P450 2C8): < 5.00
pIC50 (Cytochrome P450 2C9): < 5.00
Tmax [16]: 4.8 min
k el at 24 h [17]: 1.11e-05 s⁻¹
fraction unbound at 4 h, 1 µM [18]: 0.001
bioavailability [19]: 17.5%
Tmax [20]: 3 h
pIC50 (Cytochrome P450 3A4): < 5.00
Structure (SMILES): C[C@H]1CO[C@@H]2Cn3cc(C(=O)NCc4ccc(F)nc4F)c(=O)c(O)c3C(=O)N12
Ratio CC50/EC50 [4]: > 41.7
CC50 [5]: > 10 nM

pEC50 [1, 21]: 8.66
solubility thermodynamic at 24 h [2]: 6 µg/mL (≈ 14.3 µM)
solubility thermodynamic at 24 h [3]: 10 µg/mL (≈ 23.8 µM)
Structure (SMILES): C[C@H]1CO[C@@H]2Cn3cc(C(=O)NCc4cccc5cccnc45)c(=O)c(O)c3C(=O)N12
selectivity ratio [4]: > 4.6
CC50 [5]: > 10 nM

solubility thermodynamic at 24 h [2]: 8 µg/mL (≈ 19 µM)
solubility thermodynamic at 24 h [3]: 31 µg/mL (≈ 73.7 µM)
Structure (SMILES): C[C@H]1CO[C@@H]2Cn3cc(C(=O)NCc4ccnc5ccccc45)c(=O)c(O)c3C(=O)N12

pEC50 [1, 21]: 8.84
solubility thermodynamic at 24 h [2]: 24 µg/mL (≈ 63.9 µM)
solubility thermodynamic at 24 h [3]: 33 µg/mL (≈ 87.9 µM)
Structure (SMILES): C[C@H]1CO[C@@H]2Cn3cc(C(=O)NCc4cccs4)c(=O)c(O)c3C(=O)N12
selectivity ratio [4]: > 6.9
CC50 [5]: > 10 nM
